What was measured:
NF-κB = NF-κB dependent luciferase reporter in 293T cells; assay type: cell-based; settings: 293T NF-κB luciferase, drug treatment 7 hr
From the text: FIG. 21C illustrates 293T cells stably expressing NF-κB dependent luciferase gene that show a dose dependent reduction in bioluminescence with drug treatment (7 hr) measured by luminometer.
Activation of NF-κB is regulated by IκB proteins. IκB-α ubiquitination and degradation is an important step for the nuclear localization of NF-kB and activation of its transcriptional program.

C2KmFvB1 = experiment: MTT cytotoxicity assay, C2KmFvB1; settings: read-out: cytotoxicity IC50 C2KmFvB1, Tables 3A/4B/4C, BRCA2 + Ve
HeLa cells = experiment: XTT cytotoxicity assay, HeLa; assay type: cell-based, human; settings: Homo sapiens, HeLa, read-out: IC50 HeLa
From the text: The impact of substituents of the aromatic ring on the potency of molecules was also examined. The presence of either an electron withdrawing group (EWG) or an electron donating group (EDG) influences the reactivity of a Michael acceptor towards the target protein but can also impact specificity/selectivity.

[1] = system: proteasome (4UbFL reporter); experiment: 4UbFL reporter in leg muscle of BALB/c mice; assay type: in vivo; settings: single i.p. administration to mice
Method: FIG. 9B illustrates BALB/c mice electroporated with 4UbFL plasmid (10 μg/mouse) in the leg muscle and the basal luminescence was recorded after 48 hr. Groups of mice (n=5) were treated with different compound (40 mg/Kg) or vehicle alone (25% (w/v) β-Hydroxypropylcyclodextrin in water). Mice were imaged for bioluminiscence activity using IVIS instrument at 4, 24, 48, 72 and 96 hr.
To test for proteasome inhibition by RA375 in vivo, an electroporation delivery was employed to transfect the leg muscle of mice with the 4UbFL reporter plasmid. […] At two days post electroporation of the 4UbFL DNA, mice were imaged, and base line luminescence recorded. […] After 4 h, 24 h, 48 h, 72 h and 96 h post treatment mice were again imaged, and bioluminescence was quantified.
Electroporation Method: A patch of CD1 or Balb/c mouse leg was shaved of hair and 10 μg 4Ub-FL plasmid in 20 μL of PBS was injected into the quadriceps femoralis muscle followed immediately by injection of the 2 Needle Array to 5 mm depth encompassing the injection site and square wave electroporation (ElectroSquarePorator 833, BTX-2 Needle array 5 mm gap, Harvard apparatus) delivered as eight pulses at 106V for 20 ms with 200 ms intervals. […] Equally sized areas were analyzed using Living Image 2.20 software. […]

ID8-vegf = settings: mouse

C[C@H]1/C(=C\c2ccc([N+](=O)[O-])cc2)C(=O)/C(=C/c2ccc([N+](=O)[O-])cc2)CN1C(=O)[C@@H](N)Cc1ccccc1
decrease in NF-κB activity, relative potency (NF-κB): more potent than for RA183 | IC50 (VU93): 0.1 µM

N[C@@H](Cc1ccccc1)C(=O)N1C/C(=C\c2ccc(Cl)c(Cl)c2)C(=O)/C(=C/c2ccc(Cl)c(Cl)c2)C1 [RA190, reference compound]
IC50 (C2KmFvB1): 0.436 µM

O=C(CCl)N[C@@H](Cc1ccccc1)C(=O)N1C/C(=C\c2ccc([N+](=O)[O-])cc2)C(=O)/C(=C/c2ccc([N+](=O)[O-])cc2)C1 [RA375]
IC50 (HeLa cells): 0.013 µM | duration of proteasome inhibition in muscle [1]: > 72 h | IC50 (ID8-vegf): 0.044 µM

Reference: patent publication US12673918B2, “Small molecule RPN13 inhibitors with antitumor properties” (The Johns Hopkins University, priority 2019, dated 2026)
